Values of other authors in patent US20240409939A1 (Hoffmann-La Roche Inc., priority 2021, published 2024).

Key:
FUBP1 = conditions: Xiong et al 2016; cited from earlier work
FUBP1/FUSE interaction = target: T1, FUBP1/FUSE interaction (Homo sapiens, UniProt Q96AE4); conditions: Hosseini et al 2017; cited from earlier work
T1 sequence (Q96AE4 1-644): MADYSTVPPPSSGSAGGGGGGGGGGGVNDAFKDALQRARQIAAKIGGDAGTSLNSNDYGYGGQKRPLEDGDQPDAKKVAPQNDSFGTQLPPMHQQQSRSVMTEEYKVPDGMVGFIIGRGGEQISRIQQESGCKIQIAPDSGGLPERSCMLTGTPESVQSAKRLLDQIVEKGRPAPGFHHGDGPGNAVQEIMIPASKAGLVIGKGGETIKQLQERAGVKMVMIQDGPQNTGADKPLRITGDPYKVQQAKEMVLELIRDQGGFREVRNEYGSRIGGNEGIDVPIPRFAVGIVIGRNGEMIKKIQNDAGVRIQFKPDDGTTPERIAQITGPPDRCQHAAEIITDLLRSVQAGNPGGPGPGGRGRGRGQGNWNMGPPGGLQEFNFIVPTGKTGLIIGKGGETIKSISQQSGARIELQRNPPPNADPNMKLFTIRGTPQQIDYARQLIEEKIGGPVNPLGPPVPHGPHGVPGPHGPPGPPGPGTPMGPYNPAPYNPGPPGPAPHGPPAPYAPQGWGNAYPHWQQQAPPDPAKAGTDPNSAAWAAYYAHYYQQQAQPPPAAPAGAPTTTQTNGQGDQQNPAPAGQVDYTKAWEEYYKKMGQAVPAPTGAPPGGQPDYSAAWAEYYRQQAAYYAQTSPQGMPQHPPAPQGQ

| SMILES | FUBP1 expression in osteosarcoma cells (FUBP1) | FUBP1 activity (FUBP1/FUSE interaction) (FUBP1/FUSE interaction) |
| --- | --- | --- |
| CCCc1cc(C)[nH]c(=O)c1CNC(=O)c1cc(-c2ccnc(N3CCN(C)CC3)c2)cc2c1cnn2C(C)C [GSK343] | inhibits FUBP1 expression |  |
| CC[C@@]1(O)C(=O)OCc2c1cc1n(c2=O)Cc2cc3ccccc3nc2-1 [camptothecin, Camptothecin ((+)-4 (S)-Ethyl-4-hydroxy-3,4,12, 14-tetrahydro-1H-pyrano [3′,4′: 6,7]indolizino [1,2-b]quinoline-3,14-dione)] |  | inhibit FUBP1 activity |
| CCc1c2c(nc3ccc(O)cc13)-c1cc3c(c(=O)n1C2)COC(=O)[C@]3(O)CC [SN-38, SN-38 (4 (S), 11-Diethyl-4,9-dihydroxy-3,4,12, 14-tetrahydro-1H-pyrano [3′,4′: 6,7]indolizino [1,2-b]quinoline-3,14-dione 7-Ethyl-10-hydroxycamptothecin)] |  | inhibit FUBP1 activity |
